Test results: patent publication US20230414826A1, “FIBRIN HYDROGELS” (Mayo Foundation for Medical Education and Research, priority 2020, published 2023)

Biological target: T1, fibrin gels (40 mg/mL fibrinogen, 33 U/mL thrombin) (Homo sapiens, UniProt P02671+P02675+P02679)
T1 construct: purchased Ethicon (Evicel)
T1 sequence (P02671 20-644 isoform P02671-2 limits assumed): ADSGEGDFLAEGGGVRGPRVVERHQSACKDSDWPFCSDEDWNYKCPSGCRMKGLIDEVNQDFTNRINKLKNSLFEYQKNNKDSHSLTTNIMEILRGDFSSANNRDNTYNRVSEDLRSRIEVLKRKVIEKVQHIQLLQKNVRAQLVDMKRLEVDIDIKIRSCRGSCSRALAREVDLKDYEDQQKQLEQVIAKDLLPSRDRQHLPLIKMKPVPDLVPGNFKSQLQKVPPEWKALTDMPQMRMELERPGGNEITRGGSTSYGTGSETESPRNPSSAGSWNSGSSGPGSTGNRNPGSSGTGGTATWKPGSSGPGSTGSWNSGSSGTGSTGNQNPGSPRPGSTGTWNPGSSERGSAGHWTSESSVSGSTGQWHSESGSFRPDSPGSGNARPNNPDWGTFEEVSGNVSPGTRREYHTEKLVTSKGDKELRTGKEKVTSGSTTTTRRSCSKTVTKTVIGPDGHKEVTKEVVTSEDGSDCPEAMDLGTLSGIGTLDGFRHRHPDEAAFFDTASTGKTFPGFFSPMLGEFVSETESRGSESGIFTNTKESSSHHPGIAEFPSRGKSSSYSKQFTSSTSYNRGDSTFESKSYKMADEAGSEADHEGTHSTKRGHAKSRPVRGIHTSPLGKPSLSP
T1 sequence (P02675 45-491 limits assumed): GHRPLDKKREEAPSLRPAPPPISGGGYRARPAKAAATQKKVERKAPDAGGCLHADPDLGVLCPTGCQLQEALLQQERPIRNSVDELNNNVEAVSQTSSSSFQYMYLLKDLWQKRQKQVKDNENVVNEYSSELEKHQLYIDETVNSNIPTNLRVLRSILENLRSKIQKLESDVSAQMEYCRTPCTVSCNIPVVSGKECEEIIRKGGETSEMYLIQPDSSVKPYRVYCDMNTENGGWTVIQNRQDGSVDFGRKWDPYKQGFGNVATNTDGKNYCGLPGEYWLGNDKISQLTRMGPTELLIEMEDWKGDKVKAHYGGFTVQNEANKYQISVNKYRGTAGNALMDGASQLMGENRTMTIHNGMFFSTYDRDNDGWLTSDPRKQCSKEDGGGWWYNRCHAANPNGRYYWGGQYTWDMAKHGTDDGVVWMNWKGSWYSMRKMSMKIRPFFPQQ
T1 sequence (P02679 27-437 isoform P02679-2 limits assumed): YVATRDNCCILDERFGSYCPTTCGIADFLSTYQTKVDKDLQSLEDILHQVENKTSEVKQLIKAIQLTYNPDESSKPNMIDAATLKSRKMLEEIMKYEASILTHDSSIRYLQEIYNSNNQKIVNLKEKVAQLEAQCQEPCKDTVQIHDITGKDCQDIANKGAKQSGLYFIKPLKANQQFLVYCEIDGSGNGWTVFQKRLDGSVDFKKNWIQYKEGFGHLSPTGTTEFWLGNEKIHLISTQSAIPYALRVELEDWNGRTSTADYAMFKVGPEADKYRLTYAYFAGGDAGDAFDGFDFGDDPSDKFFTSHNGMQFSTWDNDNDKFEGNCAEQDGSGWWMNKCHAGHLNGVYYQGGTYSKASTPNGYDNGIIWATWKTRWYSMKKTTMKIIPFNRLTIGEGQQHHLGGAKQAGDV
Experiment: Rheometry gelation time, polymerization time and shear modulus, higher fibrinogen concentration fibrin gels
Format: biochemical
Conditions: 0.12% w/v dye, n=3; for final shear modulus (g′): strain sweep after 2 hour time sweep
Procedure: The viscoelastic mechanical properties of fibrin gels were characterized using oscillatory shear rheology on a Discovery Hybrid Rheometer 2 (TA Instruments; New Castle, DE) with a 20 mm cone-and-plate geometry at a 1° angle and a 20 mm stage. Inertia, friction, and rotational mapping calibrations were performed prior to each experiment. A Peltier temperature-controlled stage maintained 37° C. and a solvent trap was used to control evaporation during experiments lasting longer than 20 minutes. Gels were prepared by mixing specified concentrations of fibrinogen, dye, and thrombin on the stage. Immediately after combining, the geometry head was lowered to 500 μm (˜1-3 seconds) before beginning the first experiment. Gelation kinetics were monitored in time sweeps at 1% strain and 10 rad/s angular frequency. Strain sweeps were measured from 0.01-1000% strain at 1 Hz frequency. A frequency sweeps measured from 0.01-3 Hz at 1% strain was used to confirmed fibrin independence of frequency.
To determine the final polymerization time and resultant shear modulus, a final concentration of 40 mg/mL fibrinogen, 33 U/mL thrombin, and 0.12% w/v dye was used to simulate fibrin scaffold parameters described elsewhere (see, e.g., Gandhi et al., 2018 Acta Biomater., 67:134-46). A time sweep was performed for 2 hours, and the strain sweep was measured following the time sweep to confirm final polymerization had occurred. The shear modulus was determined by averaging values within the linear region of the strain sweep (between 0.01% and 0.5% strain). A 95% confidence interval was defined for the final shear modulus and the lower range value was used as the threshold to determine the final polymerization time.
With confirming that both TB and EB, but not PEG, cause a substantial increase in gelation time, polymerization time was measured. The polymerization time is the total time for the hydrogel to fully form with no remaining soluble fibrin monomer. Functionally, this is defined as the point at which the shear modulus no longer changes. Quantitatively, this is defined at the point at which the g′ reaches its maximum and plateaus over time.
To test if the inclusion of TB and EB would alter the polymerization time, the previous rheometry setup was used over a longer range of time. Unfortunately, evaporative effects were detected as early as 2 hours. […] The surface was sticky, and the presence of non-cross-linked fibrin was evident. To measure polymerization time reliably, the fibrinogen and thrombin concentrations were increased. A 40 mg/mL fibrinogen and 33 U/mL thrombin final concentration is capable of fully polymerizing within 2 hours (see, e.g., Gandhi et al., Acta Biomater., 67:134-46 (2018)). As such, the rheometry experiment were repeated at these concentrations. A final concentration of 0.12% w/v for TB, EB and PEG was used.
Both PBS and PEG groups show g′ values greater than g″ values at the first detectable time point (12 seconds), showing that both groups had already past the initial gelation time. TB and EB show a delay in gelation but appear to quickly approach the PBS and PEG groups. Near the 1000 sec mark, all four groups appear to show a similar growth of g′ overtime. A strain sweep was measured at the end of the time sweep to confirm that the gel had completed polymerization within the 2 hour time frame. Shear modulus values from the linear portion of the strain sweep were verified with rheological data described elsewhere (see, e.g., Wedgwood et al., Macromolecular Symposia, 334:117-25 (2013); and Moreno-Arotzena et al., Materials (Basel), 8:1636-51 (2015)), and used to determine the final gel shear modulus. Using this shear modulus value, the polymerization time for each sample was calculated. The polymerization times for PBS, TB, EB, and PEG groups were 97.0±14.9, 94.6±8.3, 106.2±10.7, 93.8±17.0 minutes (n=3, p=0.654) (FIG. 8B).

| Compound | gelation time | polymerization time | final shear modulus (g′) |
| --- | --- | --- | --- |
| Cc1cc(-c2ccc(/N=N/c3ccc4c(S(=O)(=O)O)cc(S(=O)(=O)O)c(N)c4c3O)c(C)c2)ccc1/N=N/c1ccc2c(S(=O)(=O)O)cc(S(=O)(=O)O)c(N)c2c1O [EB, Evans Blue] | 89.6 ± 17.9 s | 106.2 ± 10.7 min | 2077±441 Pa |
| Cc1cc(-c2ccc(/N=N/c3c(S(=O)(=O)O)cc4cc(S(=O)(=O)O)cc(N)c4c3O)c(C)c2)ccc1/N=N/c1c(S(=O)(=O)O)cc2cc(S(=O)(=O)O)cc(N)c2c1O [TB, Trypan Blue] | 42.4 ± 19.4 s | 94.6 ± 8.3 min | 2197±221 Pa |
